“And” between values parts separate entries of the source, which are not always exact repeats. Identical values can stand only once.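 Step 1: Grow cells in 96-well plates. Step 2: Expose to compound for 48 hours at 5 concentrations. Step 3: Interpolate endpoints linearly; if unreached, use highest concentration. Abbreviation: GI50, concentration required for 50% inhibition of growth. The concentration for full growth arrest is given as TGI.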

Among the test systems are LOX IMVI melanoma; MDA-MB-231 breast; OVCAR-5 ovarian; SK-MEL-2 melanoma; SNB-75 CNS; UACC-257 melanoma; UACC-62 melanoma; RXF 393 renal.
What all share (assay): NCI-60 cell line screen, 48 h

`CC1=CC2=C(C(N)=O)C(=O)OC2(C)C(c2ccccc2)C1` (centres undefined): the TGI in the test on LOX IMVI melanoma, in the test on MDA-MB-231 breast, in the test on OVCAR-5 ovarian, with SK-MEL-2 melanoma, with SNB-75 CNS and with UACC-257 melanoma was over 100 µM each time. In addition, the TGI in the test with UACC-62 melanoma was over 100 µM.

As to `C#C[C@@]1(O)[C@@H](CO)O[C@@H](n2ccc3c(N)ncnc32)[C@@H]1O`, the GI50 is 667 nM with LOX IMVI melanoma; 1.53 µM with MDA-MB-231 breast; 3.1 µM in the test with OVCAR-5 ovarian; 1930 nM in the test with RXF 393 renal; 1.37 µM in the test on SK-MEL-2 melanoma; 2.31 µM in the test on UACC-257 melanoma. Further, the GI50 with UACC-62 melanoma is 1.79 µM. In addition, the TGI in the test with LOX IMVI melanoma came to 2.05 µM; in the test with MDA-MB-231 breast it was 5.89 µM; in the test with OVCAR-5 ovarian it was 8.54 µM; with RXF 393 renal, 4.6 µM; in the test with SK-MEL-2 melanoma it was 6.32 µM; in the test with UACC-257 melanoma it was 7.06 µM. The TGI in the test on UACC-62 melanoma turned out to be 4.48 µM.

As for `Cc1cccc(NC(=O)CCl)c1`, the TGI with LOX IMVI melanoma, in the test on MDA-MB-231 breast, with OVCAR-5 ovarian, with RXF 393 renal, in the test with SK-MEL-2 melanoma and with UACC-257 melanoma was over 10 µM each time. This molecule showed a TGI in the test on UACC-62 melanoma of over 10 µM.

As to `COc1ccc(/C=C/C(=O)c2ccc3cc(OC)c(OC)cc3c2)cc1OC`, the GI50 with LOX IMVI melanoma was 2950 nM; with MDA-MB-231 breast, 6.19 µM; in the test on OVCAR-5 ovarian, 4.81 µM; in the test with RXF 393 renal, 2820 nM; in the test on SK-MEL-2 melanoma, 11.5 µM; in the test with UACC-257 melanoma, 6.14 µM. For the same molecule, in the test on UACC-62 melanoma, the GI50 is 3.71 µM. Further, the TGI in the test with LOX IMVI melanoma was 11.2 µM; in the test on MDA-MB-231 breast it was over 100 µM; in the test with OVCAR-5 ovarian, over 100 µM; in the test with RXF 393 renal, 8.15 µM; with SK-MEL-2 melanoma, 31.6 µM; in the test on UACC-257 melanoma it was 22.6 µM. Also, the TGI in the test on UACC-62 melanoma is 16.9 µM.

`CC[C@H](C)[C@H](NC(=O)Nc1ccccc1)C(=O)N(C)[C@H](C[C@@H](OC(C)=O)c1nc(C(=O)N[C@@H](Cc2ccccc2)C[C@H](C)C(=O)OC)cs1)C(C)C`: the GI50 with LOX IMVI melanoma was 4760 nM; in the test on MDA-MB-231 breast it was 3.36 µM; with OVCAR-5 ovarian it was 11.9 µM; in the test on RXF 393 renal it was 1950 nM; in the test on SK-MEL-2 melanoma it was 3.17 µM; with UACC-257 melanoma, over 100 µM. Moreover, in the test with UACC-62 melanoma, the GI50 was 1.27 µM. The TGI in the test on LOX IMVI melanoma is over 100 µM; in the test with MDA-MB-231 breast, 22.1 µM; in the test with OVCAR-5 ovarian, over 100 µM; in the test with RXF 393 renal, 7.25 µM; with SK-MEL-2 melanoma, over 100 µM; with UACC-257 melanoma, over 100 µM. In addition, in the test on UACC-62 melanoma, the TGI was over 100 µM.

For `O=Cc1ccc(Oc2c3ccccc3nc3occc23)cc1`, the TGI in the test on MDA-MB-231 breast was determined as 22.5 µM; in the test with OVCAR-5 ovarian, 89.7 µM; in the test with RXF 393 renal, 9.17 µM; in the test on SNB-75 CNS, 85.2 µM; in the test on UACC-257 melanoma, 30.1 µM; in the test with UACC-62 melanoma, 30.4 µM. Also, the GI50 was 18.6 µM in the test on OVCAR-5 ovarian; 2320 nM with RXF 393 renal; 19.3 µM in the test on SNB-75 CNS; 12.2 µM in the test on UACC-257 melanoma; 13.1 µM in the test with UACC-62 melanoma.

Regarding `O=C(NC(=S)NNC(=S)NNc1ccccc1)c1ccccc1`, the GI50 was 7220 nM in the test with LOX IMVI melanoma; 12.9 µM with MDA-MB-231 breast; over 100 µM in the test with OVCAR-5 ovarian; 29000 nM with RXF 393 renal; 4.11 µM in the test with SK-MEL-2 melanoma; 3.09 µM with SNB-75 CNS. Moreover, the GI50 in the test on UACC-257 melanoma is 4.68 µM. Besides, the TGI with LOX IMVI melanoma, with MDA-MB-231 breast, in the test on OVCAR-5 ovarian, with RXF 393 renal, with SK-MEL-2 melanoma and in the test with SNB-75 CNS was over 100 µM each time. The same molecule yielded a TGI with UACC-257 melanoma of over 100 µM.

On to `CC(=O)OC1CCC2(C)C(CCC3C4CC=C(C(C)=O)C4(C)OC(=O)CC32)C1` (centres undefined), for which the GI50 in the test with LOX IMVI melanoma was 1610 nM; in the test with MDA-MB-231 breast it was 2.05 µM; with OVCAR-5 ovarian, 2.75 µM; with RXF 393 renal, 1150 nM; in the test with SK-MEL-2 melanoma, 2.91 µM; with UACC-257 melanoma, 1.42 µM. Further, in the test on UACC-62 melanoma, the GI50 is 1.72 µM. Also, the TGI in the test with LOX IMVI melanoma was 3.17 µM; in the test with MDA-MB-231 breast, 4.33 µM; in the test with OVCAR-5 ovarian, 7.63 µM; in the test with RXF 393 renal, 2.51 µM; in the test on SK-MEL-2 melanoma, 8.42 µM; with UACC-257 melanoma, 2.98 µM. This molecule also came in with a TGI in the test on UACC-62 melanoma of 3.53 µM.

Consider `CC1(C)CC(=O)c2c(ccc(C(=O)C[C@H](N)CO)c2N)O1`, for which the GI50 is over 17.5 µM with MDA-MB-231 breast; over 33.3 µM with OVCAR-5 ovarian; 4450 nM and 5140 nM in the test with RXF 393 renal; 12.5 µM and 5.2 µM in the test with SK-MEL-2 melanoma; > 17.5 µM and 3.1 µM in the test with SNB-75 CNS; 20.3 µM in the test with UACC-257 melanoma. Also, the TGI is over 17.5 µM in the test with MDA-MB-231 breast; over 33.3 µM with OVCAR-5 ovarian; 17.5 µM and > 33.3 µM in the test with RXF 393 renal; 17.5 µM and > 33.3 µM in the test on SK-MEL-2 melanoma; over 33.3 µM in the test on SNB-75 CNS; over 33.3 µM in the test on UACC-257 melanoma. In addition, the TGI with UACC-62 melanoma was 10.5 µM and 10.6 µM.

In the case of `C[C@]12CCC3c4ccc(O)cc4CCC3C1Cc1ccc(O)cc12` (some centres undefined), the GI50 is 6530 nM with LOX IMVI melanoma; 7.44 µM in the test with MDA-MB-231 breast; 14.5 µM in the test on OVCAR-5 ovarian; 11 µM in the test on SK-MEL-2 melanoma; 6.35 µM in the test on SNB-75 CNS; 14.4 µM in the test with UACC-257 melanoma. Further, the GI50 with UACC-62 melanoma was 5.25 µM. In addition, the TGI in the test on LOX IMVI melanoma stood at 21.3 µM; in the test on MDA-MB-231 breast it was 22.2 µM; in the test on OVCAR-5 ovarian it was 27.6 µM; with SK-MEL-2 melanoma, 26.3 µM; with SNB-75 CNS, 31.2 µM; with UACC-257 melanoma, 28.5 µM. In addition, in the test on UACC-62 melanoma, the TGI was 17.1 µM.

In the case of `NC(CSc1nc2ccccn2c1[N+](=O)[O-])C(=O)O` (centres undefined), the TGI with MDA-MB-231 breast, with OVCAR-5 ovarian, with RXF 393 renal, in the test with SK-MEL-2 melanoma, in the test on SNB-75 CNS and with UACC-257 melanoma was over 100 µM each time. Moreover, the TGI with UACC-62 melanoma was over 100 µM.

For the molecule `Cc1ccc2c(Nc3cccc(Cl)c3F)ncc(NC(=O)c3csc4c(N)ncnc34)c2c1`, the GI50 in the test on LOX IMVI melanoma was 74.3 nM; in the test on MDA-MB-231 breast, 0.164 µM; with OVCAR-5 ovarian it was 0.137 µM; in the test on RXF 393 renal, over 100000 nM; in the test on SK-MEL-2 melanoma, 0.0856 µM; with SNB-75 CNS it was over 100 µM. Moreover, the GI50 with UACC-257 melanoma is 0.0715 µM. Moreover, the TGI is over 100 µM with LOX IMVI melanoma; over 94 µM in the test with MDA-MB-231 breast; over 100 µM with OVCAR-5 ovarian; over 100 µM in the test with RXF 393 renal; over 100 µM in the test on SK-MEL-2 melanoma; over 100 µM in the test with SNB-75 CNS. For the same molecule, in the test on UACC-257 melanoma, the TGI is over 100 µM.

Consider `ClC1=NC(Cl)C(Cl)=N/C1=N\c1ncn[nH]1` (centres undefined), for which the GI50 with LOX IMVI melanoma is 1890 nM; with MDA-MB-231 breast, 1.79 µM; in the test on OVCAR-5 ovarian it was 1.71 µM; with RXF 393 renal, 1710 nM; with SK-MEL-2 melanoma, 2.61 µM; in the test on SNB-75 CNS, 5.64 µM. Further, the GI50 in the test with UACC-257 melanoma is 1.7 µM. The TGI in the test on LOX IMVI melanoma was 3.72 µM; with MDA-MB-231 breast, 3.55 µM; with OVCAR-5 ovarian, 3.27 µM; with RXF 393 renal, 3.2 µM; in the test with SK-MEL-2 melanoma, 5.63 µM; in the test on SNB-75 CNS it was 20.7 µM. For the same molecule, the TGI in the test with UACC-257 melanoma stood at 4.25 µM.

For the molecule `Cc1ncc(C(=O)Nc2ccc(CN3CCN(C)CC3)c(C(F)(F)F)c2)cc1C#Cc1cnc(N)c2ncccc12`, the GI50 with MDA-MB-231 breast was 0.0801 µM; in the test on OVCAR-5 ovarian, 0.807 µM; with RXF 393 renal it was 98.4 nM; in the test with SK-MEL-2 melanoma, 0.0783 µM; in the test with SNB-75 CNS, 0.3 µM; in the test on UACC-257 melanoma, 0.128 µM. Besides, the GI50 in the test with UACC-62 melanoma was 0.0276 µM. The TGI was determined as 1.18 µM in the test with MDA-MB-231 breast; 2.81 µM with OVCAR-5 ovarian; 1.49 µM in the test with RXF 393 renal; 0.747 µM with SK-MEL-2 melanoma; 2.26 µM in the test on SNB-75 CNS; 2.55 µM in the test on UACC-257 melanoma. The same molecule showed a TGI with UACC-62 melanoma of 1.31 µM.

In the case of `N#Cc1cccc(/C=C(/C(=O)c2ccccc2)c2ccccc2)c1`, the GI50 is 2890 nM in the test with LOX IMVI melanoma; 4.25 µM in the test with MDA-MB-231 breast; 11.9 µM with OVCAR-5 ovarian; 3720 nM in the test on RXF 393 renal; 4.69 µM in the test with SNB-75 CNS; 4.05 µM with UACC-257 melanoma. The GI50 with UACC-62 melanoma is 4.1 µM. The TGI is 10.2 µM in the test on LOX IMVI melanoma; over 100 µM in the test on MDA-MB-231 breast; 29.1 µM with OVCAR-5 ovarian; 10.8 µM with RXF 393 renal; 17.5 µM in the test on SNB-75 CNS; 18.2 µM with UACC-257 melanoma. Moreover, in the test with UACC-62 melanoma, the TGI was found to be 24.6 µM.

For the molecule `CNNC(=N\S(=O)(=O)c1cc(C(=O)Nc2ccc(Cl)cc2)c(Cl)cc1SCc1ccccc1)/N=C/c1ccc([N+](=O)[O-])s1`, the GI50 with LOX IMVI melanoma is over 100000 nM; in the test with MDA-MB-231 breast it was 6.2 µM; in the test with OVCAR-5 ovarian, over 100 µM; with RXF 393 renal, over 100000 nM; in the test on SK-MEL-2 melanoma it was over 100 µM; in the test with UACC-257 melanoma, over 100 µM. In addition, the GI50 in the test with UACC-62 melanoma is over 100 µM. The TGI in the test with LOX IMVI melanoma, in the test with MDA-MB-231 breast, in the test on OVCAR-5 ovarian, in the test with RXF 393 renal, in the test on SK-MEL-2 melanoma and in the test with UACC-257 melanoma was over 100 µM each time. This molecule yielded a TGI with UACC-62 melanoma of over 100 µM.

The values are drawn from PubChem BioAssay (NCI).
